Data as given in patent US7972800B2, “Screening method for binding property or signal transduction alterations” (Takeda Pharmaceutical Company Limited, priority 2003, dated 2011).

Key:
Type in all cases: cell-based
[1] = test system: CHO cells where the receptor was not expressed or GPCR other than GPR39 was expressed; conditions: FLIPR; control cells
[2] = target: T1, mouse GPR39 (Mus musculus, UniProt Q5U431, T447P); conditions: FLIPR, Fluo-3AM (FIG. 14 through FIG. 18)
T1 construct: expressed in transfected cells; host or cells: CHO cells, vector pAKKO-111H
T1 sequence (Q5U431 1-456 T447P): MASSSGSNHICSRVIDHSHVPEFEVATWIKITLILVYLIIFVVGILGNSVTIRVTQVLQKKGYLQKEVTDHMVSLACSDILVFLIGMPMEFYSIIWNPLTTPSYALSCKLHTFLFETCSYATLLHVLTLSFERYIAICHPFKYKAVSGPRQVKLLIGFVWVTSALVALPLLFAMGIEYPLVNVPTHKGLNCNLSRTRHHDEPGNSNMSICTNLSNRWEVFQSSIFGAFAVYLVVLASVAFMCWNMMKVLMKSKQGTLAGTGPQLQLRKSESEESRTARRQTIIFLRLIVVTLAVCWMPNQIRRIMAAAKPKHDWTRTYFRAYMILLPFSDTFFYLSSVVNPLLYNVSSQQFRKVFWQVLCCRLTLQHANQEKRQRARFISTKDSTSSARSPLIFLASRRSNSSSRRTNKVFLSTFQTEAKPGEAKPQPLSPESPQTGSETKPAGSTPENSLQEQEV
Method: Using the CHO cell line where rat GPR39 was stably expressed, the agonist activity of metal ions was detected using FLIPR in terms of the intracellular calcium-increasing reaction as an indicator. The CHO cell line used, wherein rat GPR39 was stably expressed, was cultured in HAM's αMEM (Invitrogen Corp.) containing 10% calf fetal serum (Invitrogen Corp.). On the day before the assay was conducted, the human GPR39-expressing CHO cell line was cultured in a culture flask to reach a confluent state. After washing with PBS, the cells were scraped off using trypsin and centrifuged for recovery. The cells were then suspended in medium and the suspension was adjusted to 3×10^5 cells/ml. Then, the suspension was dispensed onto a black walled 96-well plate (Costar) in 100 μl each per well, followed by incubation overnight in a CO2 incubator.
On the day when the assay was conducted, various test samples were added to the cells and the changes of intracellular calcium levels in this case were determined by FLIPR (Molecular Device). In order to determine the changes in intracellular calcium levels on FLIPR, the cells were pre-treated by the following procedures. First, for the purpose of adding a fluorescent dye Fluo-3AM (DOJIN) to the cells or washing the cells immediately before the FLIPR assay, an assay buffer was prepared. A solution was prepared by adding 20 ml of 1M HEPES (pH 7.4) (DOJIN) to 1000 ml of HBSS (Invitrogen Corp.) (hereinafter HBSS/HEPES solution), to which solution was added 10 ml of a solution mixture obtained by dissolving 710 mg of Probenecid (Sigma) in 5 ml of 1N NaOH and further adding 5 ml of HBSS/HEPES solution thereto. The resulting solution was used as the assay buffer. Next, 50 μg of Fluo-3AM was dissolved in 21 μl of DMSO (DOJIN) and an equal volume of 20% Pluronic acid (Molecular Probes) was added to and mixed with the solution. The mixture was then added to 10.6 ml of the assay buffer supplemented with 105 μl of fetal calf serum to prepare a fluorescent dye solution. The medium for the CHO cells where human GPR39 was stably expressed was removed. Immediately thereafter, the fluorescent dye solution was dispensed in 100 μl each/well and the cells were incubated in a CO2 incubator for an hour so that the fluorescent dye was taken up into the cells. The cells after the incubation was washed with the assay buffer described above and set on FLIPR. A test sample to be added to the CHO cells where rat GPR39 was stably expressed was prepared using the assay buffer and set on FLIPR at the same time. Following the pre-treatment above, the changes in intracellular calcium levels after the addition of each test sample were determined by FLIPR.
Using the CHO cell line where mouse GPR39 was stably expressed, the agonist activity of metal ions was detected on FLIPR in accordance with the procedures described in EXAMPLE 5, in terms of the intracellular calcium-increasing reaction as an indicator.

[3] = target: T2, human GPR39 (Homo sapiens, UniProt O43194); parameters: expressed in transfected cells; host or cells: CHO cells, vector pAKKO-111H; conditions: FLIPR, Fluo-3AM; metal salt added, 10-300 μM (FIGS. 1-4)
T2 sequence (O43194 1-453): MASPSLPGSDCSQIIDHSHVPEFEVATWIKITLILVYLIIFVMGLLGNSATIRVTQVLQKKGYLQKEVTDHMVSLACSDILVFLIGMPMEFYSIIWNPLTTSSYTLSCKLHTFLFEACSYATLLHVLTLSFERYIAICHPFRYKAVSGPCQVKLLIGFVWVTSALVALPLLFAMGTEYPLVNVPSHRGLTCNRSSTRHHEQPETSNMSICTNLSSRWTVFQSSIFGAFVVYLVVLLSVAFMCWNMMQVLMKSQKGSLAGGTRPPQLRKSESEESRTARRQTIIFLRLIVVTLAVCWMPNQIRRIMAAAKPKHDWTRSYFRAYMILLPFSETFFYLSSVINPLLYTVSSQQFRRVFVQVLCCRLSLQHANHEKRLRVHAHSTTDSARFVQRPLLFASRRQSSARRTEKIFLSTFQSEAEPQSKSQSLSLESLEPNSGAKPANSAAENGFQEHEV
Method: The human GPR39-GFP expression vector-transfected CHO cell line produced in EXAMPLE 1 (CHO/hGPR39-GFP) was diluted in 3×10^4 cells/100 μl. The dilution was dispensed onto a Black walled 96-well plate (Costar) in 100 μl each per well, followed by incubation overnight in a CO2 incubator. Changes in intracellular calcium levels were determined by the following method using FLIPR (Molecular Device). In 21 μl of DMSO (DOJIN), 50 μg of Fluo-3AM (DOJIN) was dissolved and an equal volume of 20% Pluronic acid (Molecular Probes) was added to the solution. After mixing them, the resulting mixture was added to 10.6 ml of assay buffer [prepared by adding 20 ml of 1M HEPES (pH 7.4) (DOJIN) to HBSS (Invitrogen Corp.) and further adding to the solution 10 ml of a solution mixture, which mixture was prepared by dissolving 710 mg of Probenecid (Sigma) in 5 ml of 1N NaOH and then adding thereto 5 ml of the HBSS/HEPES solution above] supplemented with 105 μl of fetal calf serum to prepare a fluorescent dye solution. The medium in the cell plate was removed. Immediately thereafter, the fluorescent dye solution was dispensed in 100 μl each/well and the cells were incubated in a CO2 incubator for an hour so that the fluorescent dye was taken up into the cells. The cells after the incubation were washed with the assay buffer described above and set on FLIPR. Compounds of metal elements to be added to the cells were diluted to the respective concentration with the assay buffer. The dilutions were dispensed onto plates for ligands and set on FLIPR. Following the pre-treatment above, changes in intracellular calcium levels after addition of metal elements were determined by FLIPR to study agonist activities.

SMILES	intracellular calcium response in CHO cells without the receptor or with GPCR other than GPR39 [1]	intracellular calcium levels of CHO/mGPR39 [2]	intracellular calcium levels of CHO/hGPR39-GFP [3]
[Cl][Cu][Cl] [copper chloride]	no such response was observed	dose-dependently increased	dose-dependently increased
[Cl][Ni][Cl] [nickel chloride]	no such response was observed	dose-dependently increased	dose-dependently increased
